# Measured values as given in paper PMC11096368, “Transcriptomic signature, bioactivity and safety of a non-hepatotoxic analgesic generating AM404 in the midbrain PAG region” (Scientific Reports, 2024).
# Entries after “also recorded” stand apart in the source; their conditions may differ. Where two headings read alike, the source gives them in different places.
# How the values were obtained:
# Type in all cases: in vivo
# liver of CD1 mice = assay: Hepatotoxicity at 600 mg/kg: nitrotyrosine, ZO-1 tight junctions, TUNEL, liver function tests; conditions: 15 out of 20 ApAP treated animals; data not shown
# [1] = LC–MS/MS identification of serum NAPQI; conditions: 600 mg/kg, CD-1 mice
# Procedure: […] (NAPQI) was extracted from the serum by adding 3 volumes of ethyl-acetate to 1 volume of serum and storing them on ice for 30 min, followed by centrifugation at 3000g for 30 min. Afterward, the supernatant was transferred into mass spectrometry vials and dried under N2 gas. The serum was then washed with another 3 volumes of ethyl-acetate, and the supernatant was added back to the same mass spectrometry vial, followed by evaporation under a stream of N2 gas. The sample was re-suspended with 50 µl of 1:1 MeOH:H2O for LC–MS/MS experimentation. The mass spectrophotometer was operated in multiple reaction monitoring (MRM) mode using positive ion electrospray. NAPQI was detected by monitoring the m/z transition 150.3 → 108.1. Pure NAPQI analytical standard (10 ng/mL) obtained from Cayman Chemical (Ann Arbor, MI) was used to characterize the full fragmentation pattern of NAPQI and determine the likely fragments.
# Sprague–Dawley rats = assay: CFA inflammatory pain / von Frey with electronic detection (eVF); conditions: for Threshold for paw withdrawal, CFA-injected paw: young male rats, 18 g after CFA; for ED50: Rattus norvegicus, equimolar dosing; for Threshold for paw withdrawal, CFA-injected left hind paw: young female and aged male rats (Supplementary Fig. 3), from 25 g
# Source text: The investigators were blinded till the completion of all the experiments. To ensure objectivity, investigators were blinded for the acetic acid and tail flick experiments. In the CFA/von Frey and Hargreaves assays, one investigator did the drug pre-treatments, and another investigator at another location who was not aware of the treatments conducted the behavioral testing. Moreover, these studies used the eVF device that electronically registers the grams of force necessary to elicit paw withdrawal, eliminating bias that confounded older versions of this test in which an investigator used a series of individual von Frey microfilaments to determine paw withdrawal thresholds. Six separate experimenters were involved in the data acquisition for behavioral testing, and another separate investigator performed all the statistical analyses using GraphPad Prism Version 9.1.2. Statistical significance was determined by p < 0.05; one-way ANOVA followed by Sidak’s multiple comparisons post hoc test. Mixed-gender experiments were powered to test for gender effects, and different ages of rodents were also included for the experiments – young (2 months) and aged (20 months) to tease out whether there are any effects of age-related changes in nociceptive sensitivity under naïve, and inflammatory pre-clinical rodent pain models. For the aged rats and mice, we could only obtain male Sprague–Dawley rats and male C57BL/6 mice of 20 months old from all commercial animal vendors and from the National Institute of Aging (NIA). So, only these rodents were used for the older animal experimental cohort. Old female rats and mice were not available at the time when these experiments were conducted. For ED50 calculation, dose–response curves were calculated with regression analysis and log transformation using GraphPad Prism 9.1.2.
# In this model of mechanonociception, one hind paw at a time is stimulated with an electronic von Frey (eVF) filament (noxious source) until the animal retracts the paw from the mechanical stimulus. von Frey tests were conducted in a dedicated room at the LSUHSC New Orleans Neuroscience Center of Excellence vivarium. Rats were acclimated to their environment for 2 days for 30 min/day prior to testing. To obtain eVF pressure recordings, each animal was placed in an individual plastic observation compartment on a perforated metallic grid platform, which provided access to the plantar surface of the hind paws. After acclimation to the environment for 30 min, mechanical hypersensitivity was assessed by stimulating the mid-plantar area of each hind paw with a rigid tip von Frey filament attached to the eVF meter (Ugo Basile 38,450) until animals withdrew the paw from the filament. The withdrawal threshold was defined as the average force/pressure (g) required for the rat to withdraw the stimulated paw. A brisk withdrawal of the paw (often followed by a sustained retraction and/or licking) was considered a positive response, but paw withdrawals due to locomotion or weight shifting were not counted. The von Frey studies were conducted with an eVF device that electronically registers the grams of force necessary to elicit paw withdrawal in order to eliminate bias that confounded previous older versions of this test. Baseline withdrawal thresholds of both the right and left paws were recorded, and animals were assigned to different treatment groups so that each group had approximately equal withdrawal threshold averages in both paws. After baseline testing, treated animals received subcutaneous plantar injection (150 μl) of 50% CFA diluted and freshly mixed in sterile (0.9%) saline into the left hind paw unilaterally, while control animals received a plantar injection (150 µl) of 0.9% NaCl into their left hind paw. CFA induces inflammation, resulting in a left hind paw that is hypersensitive to mechanical stimulus, while the right hind paw serves as a within-subject baseline for each animal. […]
# male CD1 mice = assay: Baker yeast-induced hyperthermia antipyresis assay; conditions: 75 mg/kg per os, n = 10
# Procedure: Antipyresis experiments were carried out with n = 60 CD-1 male mice weighing between 45 and 50 g. All mice were kept in a 12-h day/12-h night cycle with free access to food and water ad libitum. After habituating and acclimating the mice for a week, each mouse was briefly anesthetized for 1 min with 1% isoflurane and implanted subcutaneously a transmitter probe that records core body temperature – Implantable Programmable Temperature Transponder (IPTT-300) by Bio Medic Data Systems (BMDS), DE, USA. The mice were allowed to recover for at least one week from the surgery before any recordings were made and observed in their home cages prior to pyrogen challenge for inducing fever. Temperatures were recorded using the BMDS DAS-8027-IUS data reading system.
# 15% yeast, 0.1 mL/kg (MilliporeSigma, Billerica, MA, USA) was used to induce fever. All animals used in this assay were male CD1 mice, which were fasted overnight (15 h) before the start of the assay.
# Mice received either yeast in 0.9% saline (sterile) (vehicle) or just 0.9% saline as an ip injection. […] All mice that didn’t show a significant change in body temperature or appeared sick post-pyrogen challenge were excluded (n = 5) from subsequent drug administrations.
# All drugs and vehicle (10% DMSO: 10% labrasol :80% PEG400) were administered by oral gavage, PO administration. Each dosing volume was ~ 0.3–0.4 mL per mouse. […]
# [2] = 100 mg/kg PO (cumulative dosing)
# [3] = read-out: ED50 von-Frey Assay (Rats), Aged (Male)
# [4] = read-out: ED50 von-Frey Assay (Rats), Young (Female)
# [5] = read-out: ED50 von-Frey Assay (Rats), Young (Male)
SMILES,Animals dead in 48 h (liver of CD1 mice),Formation of the hepatotoxic metabolite NAPQI (serum) [1],"Threshold for paw withdrawal, CFA-injected paw (Sprague–Dawley rats; 32 mg/kg PO)","Threshold for paw withdrawal, CFA-injected paw (Sprague–Dawley rats; [2])",ED50 (Sprague–Dawley rats; [3]),ED50 (Sprague–Dawley rats; [4]),ED50 (Sprague–Dawley rats; [5]),"Antipyresis, yeast fever (core body temperature) (male CD1 mice)","Threshold for paw withdrawal, CFA-injected left hind paw (Sprague–Dawley rats; 32 mg/kg)","Threshold for paw withdrawal, CFA-injected left hind paw (Sprague–Dawley rats; 100 mg/kg)"
"CC(=O)Nc1ccc(O)cc1 [ApAP, acetaminophen, reference compound]",75%,a NAPQI peak is seen; also recorded: significantly enhanced; also recorded: NAPQI peak appears,34 g,50 g,358 µmol/kg,292 µmol/kg,574 µmol/kg,subsequent reduction in core body temperature,–,–
"CCN(CC)C(=O)c1ccccc1S(=O)(=O)NCC(=O)Nc1ccc(O)cc1 [SRP-001, N,N-diethyl-2-[[2-(4-hydroxyanilino)-2-oxo-ethyl]sulfamoyl]benzamide]",none,lack of formation of the toxic quinonimine metabolite NAPQI; also recorded: does not produce the hepatotoxic metabolite; also recorded: lack of production of NAPQI,40 g,55 g,454 µmol/kg,121 µmol/kg,190 µmol/kg,subsequent reduction in core body temperature,32 g,40 g
